Reference: publication PMC5007552, “The hVps34‐SGK3 pathway alleviates sustained PI3K/Akt inhibition by stimulating mTORC1 and tumour growth” (The EMBO Journal, 2016)

Key:
MLK1 = MLK1 (Homo sapiens, UniProt P80192); test: IC50 on recombinant MLK1; format: biochemical; conditions: Fig 5B / Appendix Fig S1B, recombinant kinase, unit inferred
Protocol: The result for each kinase is presented as a mean kinase activity of the reaction taken in triplicate relative to a control reaction where the inhibitors were omitted. […] SGK3 was immunoprecipitated from cell lysates and subjected to in vitro kinase assay by measuring phosphorylation of the Crosstide substrate peptide in the presence of 0.1 mM [γ‐^32P]ATP in a 30 min 30°C reaction (upper panel). Kinase reactions are presented as means ± SD for triplicate reaction.
Appendix Figure S1. […] (A) Chemical struc tures of
Sano/f_i-14g, -14i and -14n compounds. (B) IC50 values of inhibitors on indicated recombinant k inases. […]

BT-474 xenograft tumours = test: Cleaved caspase-3 immunohistochemistry of xenograft tumours; format: in vivo, mice; conditions: end of treatment, 4 h after last dosage
Protocol: Figure 8 Dual treatment with Akt and SGK inhibitors reduces tumour growth in BT‐474 xenograft model • BT‐474 cells were treated for the indicated times with 0.3 μM MK‐2206. The cell lysates were analysed by immunoblot using the indicated antibodies. • BT‐474c cells were treated with inhibitors as indicated either as monotherapy or in combination and cell confluency measured on the Incucyte ZOOM every 4 h for up to 4 weeks. • BT‐474 cells were injected subcutaneously into athymic Foxn1 ^nu nude mice. […] The tumour volume was measured twice a week. Tumour growth is represented as the fold change mean ± SEM. • All mice were weighed at the end of the treatments. […] Apoptotic cells were counted in 25 fields per condition (left panel) and quantified as clCasp3‐positive cells/field (right panel). […] Six different tumours were analysed from each treatment group and each line represents one tumour sample. […]
Experiments involving mice were in accordance with Institutional Guidelines of Memorial Sloan Kettering Cancer Center (Protocol number 12‐10‐019). […] When tumours reached a volume of ~150 mm^3, mice were randomised, treated, and tumours were measured twice a week. Tumour volume was determined using the following formula: (length × width^2) ÷ 2. […]

Sequence of MLK1 (P80192 whole entry, species assumed): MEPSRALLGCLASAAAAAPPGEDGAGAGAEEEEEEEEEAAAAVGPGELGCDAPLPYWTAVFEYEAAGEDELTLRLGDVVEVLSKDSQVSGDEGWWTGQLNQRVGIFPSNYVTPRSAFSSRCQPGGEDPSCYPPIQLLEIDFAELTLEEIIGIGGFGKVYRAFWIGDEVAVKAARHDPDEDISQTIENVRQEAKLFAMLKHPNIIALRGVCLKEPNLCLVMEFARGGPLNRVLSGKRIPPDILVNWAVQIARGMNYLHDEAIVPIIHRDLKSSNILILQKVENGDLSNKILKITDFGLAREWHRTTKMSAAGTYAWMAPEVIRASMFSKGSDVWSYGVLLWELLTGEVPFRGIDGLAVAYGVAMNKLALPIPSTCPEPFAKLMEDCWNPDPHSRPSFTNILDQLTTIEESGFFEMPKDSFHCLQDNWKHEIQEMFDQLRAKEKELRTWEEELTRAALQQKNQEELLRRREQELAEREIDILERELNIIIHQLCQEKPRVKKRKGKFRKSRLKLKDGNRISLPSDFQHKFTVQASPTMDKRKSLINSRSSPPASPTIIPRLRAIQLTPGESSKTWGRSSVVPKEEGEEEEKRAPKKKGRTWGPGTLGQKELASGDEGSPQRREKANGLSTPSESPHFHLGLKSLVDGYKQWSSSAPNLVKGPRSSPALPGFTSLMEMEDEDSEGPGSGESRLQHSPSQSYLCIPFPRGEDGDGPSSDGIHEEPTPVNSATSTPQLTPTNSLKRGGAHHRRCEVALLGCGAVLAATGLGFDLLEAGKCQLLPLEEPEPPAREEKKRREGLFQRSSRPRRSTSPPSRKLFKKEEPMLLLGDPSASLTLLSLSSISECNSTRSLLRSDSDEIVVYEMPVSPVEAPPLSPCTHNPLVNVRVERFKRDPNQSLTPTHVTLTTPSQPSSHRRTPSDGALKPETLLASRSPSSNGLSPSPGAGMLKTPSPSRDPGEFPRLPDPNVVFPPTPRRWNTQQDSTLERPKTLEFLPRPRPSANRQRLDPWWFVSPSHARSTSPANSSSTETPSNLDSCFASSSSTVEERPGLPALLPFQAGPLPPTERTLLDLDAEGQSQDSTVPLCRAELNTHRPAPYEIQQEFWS

Row | Compound | IC50 (MLK1) | number of apoptotic (cleaved caspase-3 positive) cells in tumours (BT-474 xenograft tumours)
1 | Nc1n[nH]c2nc(-c3ccc(NS(=O)(=O)c4cc(Cl)ccc4Cl)cc3)cnc12 [14h] | 215 nM | 
2 | NC1(c2ccc(-c3nc4ccn5c(=O)[nH]nc5c4cc3-c3ccccc3)cc2)CCC1 [MK-2206] |  | increased number of apoptotic cells
